The assay has as its target Serine/threonine-protein kinase B-raf [V600E] (Homo sapiens, UniProt P15056, V600E). Put plainly: Raf/Mek Amplified Luminescence Proximity Homogeneous Assay. The following applies: pH 7.5. An excerpt: Raf/Mek amplified luminescence proximity homogeneous assay.

Broadly, the pIC50 is the IC50 on a negative log10 scale, so that one unit is a factor of ten. A higher pIC50 goes with a small IC50.

pIC50: −log10 of the molar value.

Chain of Serine/threonine-protein kinase B-raf [V600E] (P15056 2-766 V600E limits assumed): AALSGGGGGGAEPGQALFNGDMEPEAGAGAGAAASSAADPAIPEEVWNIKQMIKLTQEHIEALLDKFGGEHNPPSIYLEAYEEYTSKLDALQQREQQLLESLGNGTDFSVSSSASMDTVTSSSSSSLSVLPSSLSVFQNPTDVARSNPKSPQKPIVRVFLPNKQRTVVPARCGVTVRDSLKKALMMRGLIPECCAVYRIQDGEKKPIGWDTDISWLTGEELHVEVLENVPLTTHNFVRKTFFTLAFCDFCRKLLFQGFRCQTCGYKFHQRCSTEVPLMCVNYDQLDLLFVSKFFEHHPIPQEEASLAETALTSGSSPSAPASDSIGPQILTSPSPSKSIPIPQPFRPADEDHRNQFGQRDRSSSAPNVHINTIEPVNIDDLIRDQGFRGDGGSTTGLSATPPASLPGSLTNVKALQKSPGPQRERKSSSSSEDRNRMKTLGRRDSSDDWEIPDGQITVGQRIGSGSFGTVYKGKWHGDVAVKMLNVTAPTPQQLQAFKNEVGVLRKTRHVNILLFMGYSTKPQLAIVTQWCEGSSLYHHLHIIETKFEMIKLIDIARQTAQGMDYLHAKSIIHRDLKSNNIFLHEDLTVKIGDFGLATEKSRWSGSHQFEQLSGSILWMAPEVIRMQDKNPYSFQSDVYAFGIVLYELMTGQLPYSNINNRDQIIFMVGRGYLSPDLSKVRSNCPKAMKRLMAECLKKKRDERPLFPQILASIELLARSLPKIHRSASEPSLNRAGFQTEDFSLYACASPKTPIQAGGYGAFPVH

In turn, `COC(=O)N[C@@H](C)CNc1nccc(-c2nc(C(C)(C)C)[nH]c2-c2cc(Cl)cc(NS(=O)(=O)C(F)(F)F)c2)n1` [US8563553, 52] gave a pIC50 of 6.63.

For the origin of these results see BindingDB's records for patent US8563553 (Novartis, 2013).
